Results taken from publication PMC11719397, “Monophthalates of betulinic acid and related pentacyclic triterpenes inhibit efficiently the SOS-mediated nucleotide exchange and impact PI3K/AKT signaling in oncogenic K-RAS4B proteins” (RSC Advances, 2025).
Converted amounts (≈) assume the structure as drawn.

What was measured:
K-RAS4B wild-type = K-RAS4B wild-type (Homo sapiens, UniProt P01116); test: Nucleotide exchange assay (SOS1-mediated GDP/GTP exchange, GDP-Glo), K-RAS4B wild-type; type: biochemical; conditions: K-RAS4B GDP/GTP exchange; eight data points, at least three determinations; (*) single determination
K-RAS4B wild-type, sequence (P01116 1-188 isoform P01116-2): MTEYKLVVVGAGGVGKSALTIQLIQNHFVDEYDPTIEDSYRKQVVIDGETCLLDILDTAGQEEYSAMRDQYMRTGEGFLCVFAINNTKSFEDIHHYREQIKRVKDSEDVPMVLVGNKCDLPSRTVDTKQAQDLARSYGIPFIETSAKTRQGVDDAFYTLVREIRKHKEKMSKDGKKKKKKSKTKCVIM

K-RAS4B^G12D [1] = biological target: T1, K-RAS4B^G12D (Homo sapiens, UniProt P01116, G12D); test: biochemical; conditions: K-RAS4B GDP/GTP exchange; eight data points, at least three determinations
Target sequence in this assay (P01116 1-188 isoform P01116-2 G12D): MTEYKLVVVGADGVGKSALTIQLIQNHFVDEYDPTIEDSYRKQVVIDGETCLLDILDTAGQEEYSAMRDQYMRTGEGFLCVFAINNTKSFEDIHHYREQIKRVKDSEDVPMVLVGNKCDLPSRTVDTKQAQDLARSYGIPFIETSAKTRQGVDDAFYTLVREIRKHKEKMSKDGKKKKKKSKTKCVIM

K-RAS4B G12V = K-RAS4B G12V (Homo sapiens, UniProt P01116, G12V); test: Nucleotide exchange assay (SOS1-mediated GDP/GTP exchange, GDP-Glo), K-RAS4B G12V; type: biochemical; conditions: eight data points, at least three determinations, (*) single determination
K-RAS4B G12V, sequence (P01116 1-188 isoform P01116-2 G12V): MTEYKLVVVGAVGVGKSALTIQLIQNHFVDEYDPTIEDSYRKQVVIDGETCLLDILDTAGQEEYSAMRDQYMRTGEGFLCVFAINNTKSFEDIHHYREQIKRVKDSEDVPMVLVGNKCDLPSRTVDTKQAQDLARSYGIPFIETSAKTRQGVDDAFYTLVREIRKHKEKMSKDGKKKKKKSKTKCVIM

[2] = test system: ERK phosphorylation in SNU-1 cells (K-RAS4B^G12D); test: HTRF ERK phosphorylation assay in SNU-1 cells; type: cell-based; conditions: Homo sapiens, SNU1, read-out: SNU-1 pERK inhibition IC50
Description: (§1) For selected betulinic acid derivatives quantitative ERK and AKT phosphorylation was measured in SNU-1 (K-RAS4B^G12D) and A375 cells (K-RAS4B^wt) to determine whether pentacyclic triterpenes act via the RAS-RAF-MEK-ERK or the RAS-PI3K-PDK1-AKT downstream cascade (Table 2). The betulinic acid derivatives tested, had no activity on the ERK pathway, but inhibited AKT phosphorylation with micromolar IC50 values in agreement with literature reports.[50,51] […] No activity was detected in A375 cells carrying a BRAF but no K-RAS mutation.
(§2) SNU-1 cells harbouring the K-RASG12D mutation (primary carcinoma of the stomach), were grown in RPMI medium with 10% FBS (fetal bovine serum) and 1% L-Gln. Cells were plated in white small volume cell culture 384 well microplates (Greiner BioOne GmbH) at a density of 50.000 cells per well/6 μL in RPMI medium with 1% L-glut (serum-free medium). The plated cells were placed in a high humidity incubator (37 °C, 5% CO2 and 90% humidity) to avoid evaporation of the small amount of medium for 3 hours before the compounds were added. With the Echo520 liquid handler the cells were treated with a 3-fold 8-point serial dilution of the compounds, with a top final concentration of 330 μM and a final DMSO concentration of 1%. After compound transfer, cells were incubated for 1 hour in the high humidity incubator before the cells were treated with 3 μL of 9 nM EGF diluted in serum-free medium (final EGF concentration in the well 3 nM) for 15 minutes. The lysis buffer from the Phospho-ERK 1/2 (Thr202/Tyr204)- and the Total ERK1/2 LANCE Ultra TR-FRET Cellular Detection Kit (PerkinElmer Inc.) was prepared to a 4-fold concentration in water. Then 3 μL of the lysis buffer were added to each well and the plates were shaken at 300 rpm for 30 minutes at room temperature. During this incubation the antibody detection mix was prepared according to the manufacturer's protocol. In the final step 3 μL of antibody detection mix were added to each well. The plates were sealed with an aluminium sticky foil and incubated over night at room temperature for 20 hours. The detection was performed with the EnVision2104 Multilabel Reader.

[3] = test system: AKT phosphorylation in SNU-1 cells (K-RAS4B^G12D); test: HTRF AKT phosphorylation assay in SNU-1 cells; type: cell-based; conditions: Homo sapiens, SNU1, read-out: SNU-1 pAKT inhibition IC50
Description: as §1, §2

[4] = test system: ERK phosphorylation in A375 cells (K-RAS4B^wt); test: HTRF ERK phosphorylation assay in A375 cells; type: cell-based; conditions: Homo sapiens, A-375; A375 cells (K-RAS4B^wt, BRAF mutation); two determinations; read-out: A375 pERK inhibition IC50
Description: as §1, §2

[5] = test system: AKT phosphorylation in A375 cells (K-RAS4B^wt); test: HTRF AKT phosphorylation assay in A375 cells; type: cell-based; conditions: Homo sapiens, A-375; A375 cells (K-RAS4B^wt, BRAF mutation); two determinations; read-out: A375 pAKT inhibition IC50
Description: as §1, §2

K-RAS4B^wt = biological target: T2, K-RAS4B^wt (Homo sapiens, UniProt P01116); test: NanoBRET target engagement assay, K-RAS4B^wt (displacement of BI2852 tracer from SI/SII site); type: cell-based; conditions: live cells; displacement of BI2852 from the K-Ras4B SI/II binding-site; read-out: K-RAS4B^wt NanoBRET TE KD
T2 construct: a fusion protein of LgBiT and full-length RAS; a fusion protein of SmBiT(q) and full-length RAS in cells; expressed in transfected cells; host or cells: HEK239T (so in the source)
T2 sequence (P01116 1-188 isoform P01116-2): as the sequence (P01116 1-188 isoform P01116-2) above
T2 sequence (P01116 1-188 isoform P01116-2): as above
Description: (§3) To obtain further information on the mode of action, selected GDP/GTP exchange inhibitors were studied in additional assays (Table 3). A target engagement assay, which is based on bioluminescence resonance energy transfer (BRET), was used to measure target engagement at protein complexes in live cells (Fig. 5a). The BRET effect results from an energy transfer between the target luciferase fusion protein and a cell-permeable fluorescent tracer in intact cells.
(§4) Fig. 5 Schematic illustrations of the RAS cellular target engagement and RAS:SOS protein–protein interaction assay. (a) NanoBRET target engagement (TE) assay: when the fusion proteins LgBiT-RAS and SmBiT(q)-RAS interact in live-cells, they form an active luciferase as a BRET donor. The BRET receptor is a fluorescent NanoBRET® tracer that binds specifically to K-RAS. K-RAS binders displace the tracer and reduce the BRET signal in a dose-dependent manner.
(§5) The NanoBRET® TE Intracellular RAS Assay uses NanoBiT® Technology, a structural complementation system comprised of a large luciferase subunit (LgBiT) and a small complementary peptide (SmBiT(q)). Specifically, a fusion protein of LgBiT and full-length RAS is co-expressed with a fusion protein of SmBiT(q) and full-length RAS in cells. When the RAS proteins interact and form multimers, the LgBiT and SmBiT(q) subunits come together to form an active luciferase enzyme that serves as the BRET donor. The energy acceptor is a cell-permeable fluorescent NanoBRET® tracer that binds specifically to RAS. […] After mixing the plate for 1 min and incubation at room temperature for 15 min 1 μL of NanoBRET TE RAS Tracer 01 (final concentration 1 μM) was added followed by another mixing step. After 2 h incubation (37 °C, 5% CO2) and 15 min at room temperature 5 μL of NanoBRET™ Nano-Glo® substrate was added followed by a mixing step.

[6] = biological target: (GTP)K-RAS4B^wt:SOS1 complex (Homo sapiens, UniProt P01116+Q07889); test: HTRF K-RAS^wt:SOS protein-protein interaction assay
(GTP)K-RAS4B^wt:SOS1 complex, sequence (P01116 1-188 isoform P01116-2): as above
(GTP)K-RAS4B^wt:SOS1 complex, sequence (Q07889 564-1049 limits assumed): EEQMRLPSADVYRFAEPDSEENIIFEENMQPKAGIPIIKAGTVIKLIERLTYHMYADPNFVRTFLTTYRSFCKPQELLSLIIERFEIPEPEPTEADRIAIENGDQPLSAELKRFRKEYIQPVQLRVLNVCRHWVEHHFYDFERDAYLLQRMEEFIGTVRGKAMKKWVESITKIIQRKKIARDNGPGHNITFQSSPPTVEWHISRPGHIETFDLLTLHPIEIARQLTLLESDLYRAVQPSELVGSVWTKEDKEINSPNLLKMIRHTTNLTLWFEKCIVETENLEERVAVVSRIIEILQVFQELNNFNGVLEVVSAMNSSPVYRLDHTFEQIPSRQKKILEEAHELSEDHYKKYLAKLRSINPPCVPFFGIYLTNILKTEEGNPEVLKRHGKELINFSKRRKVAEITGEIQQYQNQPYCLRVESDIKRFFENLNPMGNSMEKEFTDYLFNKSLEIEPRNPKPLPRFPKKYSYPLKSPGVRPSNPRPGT
Description: The interaction of (GTP)K-RAS4B^wt and SOS was measured with a HTRF assay using an SOS-specific antibody labeled with terbium cryptate as HTRF (homogeneous time-resolved fluorescence) donor and a K-RAS4B^wt specific antibody labeled with an HTRF acceptor (XL665).[52]
To test the compounds effect on the interaction of K-RAS and SOS1 proteins a commercial assay from Revvity (product code 64[sequence]) was used. The K-RAS WT/SOS1 PPI assay includes tagged human recombinant partners (K-RAS WT and SOS1) and labelled anti-tag reagents for HTRF detection. Without an inhibitor, K-RAS WT loaded with GTP binds to SOS1, and the binding of each detection reagent to its tagged target generates an HTRF signal. In the presence of K-RAS WT/SOS1 inhibitors or GTP competitors, the HTRF signal decreases.
After an incubation step for 10 min at room temperature 3 μL Tag1-KRAS protein was added followed by 7.5 μL detection mix containing anti-Tag2 antibody labeled with Terbium cryptate and anti-Tag1 antibody labeled with XL665. […] IC50 values were determined from the sigmoidal dose response curves with the Scigilian Analyze software (Scigilian, Monteral, Canada).

K-RAS4B^G12D [7] = biological target: T1, K-RAS4B^G12D; test: cell-based; design: a fusion protein of LgBiT and full-length RAS; a fusion protein of SmBiT(q) and full-length RAS in cells; expressed in transfected cells; host or cells: HEK239T (so in the source); conditions: live cells; displacement of BI2852 from the K-Ras4B SI/II binding-site; read-out: K-RAS4B^G12D NanoBRET TE KD
Description: as §3, §4, §5
Target sequence in this assay (P01116 1-188 isoform P01116-2 G12D): as the sequence (P01116 1-188 isoform P01116-2 G12D) above
Target sequence in this assay (P01116 1-188 isoform P01116-2 G12D): as above

Row | SMILES | IC50 (K-RAS4B wild-type) [µM] | IC50 (K-RAS4B^G12D [1]) [µM] | IC50 (K-RAS4B G12V) [µM] | IC50 [2] [µM] | IC50 [3] [µM] | IC50 [4] [µM] | IC50 [5] [µM] | solubility (Solubility) [µM] | Kd (K-RAS4B^wt) [µM] | Kd [6] [µM] | Kd (K-RAS4B^G12D [7]) [µM]
1 | C=C(C)[C@@H]1CC[C@]2(C(=O)O)CC[C@]3(C)[C@H](CC[C@@H]4[C@@]5(C)CC[C@H](OC(=O)c6c(F)ccc(F)c6C(=O)O)C(C)(C)[C@@H]5CC[C@]43C)[C@@H]12 [Compound 24] | 15.7 ± 4.3 | 8.63 ± 3.72 | 15.4 ± 2.9 | 134 | 13 | > 1000 | > 1000 | 378 (≈ 242 µg/mL) | – | – | –
2 | C=C(C)[C@@H]1CC[C@]2(COC(=O)CCC(=O)O)CC[C@]3(C)[C@H](CC[C@@H]4[C@@]5(C)CC[C@H](OC(=O)CCC(=O)O)C(C)(C)[C@@H]5CC[C@]43C)[C@@H]12 [Compound 32] | 1.01 ± 0.31 | 0.71 ± 0.18 | 1.37 ± 0.28 | – | – | – | – | – | 40.8 | > 100 | 29.1
3 | COc1cc(C(=O)O)c(C(=O)OC2CCC3(C)C(CCC4(C)C3CC=C3C5CC(C)(C)CCC5(C(=O)O)CCC34C)C2(C)C)cc1OC (centres unmarked) [Compound 47] | 2.71 ± 1.3 | 1.61 ± 0.85 | 2.9 ± 0.51 | – | – | – | – | 302 (≈ 201 µg/mL) | 39 | > 50 | > 50
4 | C=C(C)[C@@H]1CC[C@]2(COC(=O)CCC(=O)O)CC[C@]3(C)[C@H](CC[C@@H]4[C@@]5(C)CC[C@H](OC(=O)c6c(F)ccc(F)c6C(=O)O)C(C)(C)[C@@H]5CC[C@]43C)[C@@H]12 [Compound 33] | 2.09 ± 0.59 | 1.45 ± 0.93 | 2.13 ± 0.87 | – | – | – | – | 416 (≈ 302 µg/mL) | – | 37.4 | 26.4
5 | C[C@H]1[C@H](C)CC[C@]2(C(=O)O)CC[C@]3(C)C(=CC[C@@H]4[C@@]5(C)CC[C@H](OC(=O)c6c(F)ccc(F)c6C(=O)O)C(C)(C)[C@@H]5CC[C@]43C)[C@H]12 [Compound 36] | 3.46 ± 1.94 | 2.64 ± 1.75 | 2.52 ± 0.99 | – | – | – | – | 424 (≈ 272 µg/mL) | – | > 50 | > 50
6 | C=C(C)[C@@H]1CC[C@]2(C(=O)O)CC[C@]3(C)[C@H](CC[C@@H]4[C@@]5(C)CC[C@H](OC(=O)c6nccnc6C(=O)O)C(C)(C)[C@@H]5CC[C@]43C)[C@@H]12 [Compound 23] | 23.3 ± 2.9 | 11.8 ± 1 | 9.61 ± 4.82 | > 1000 | 61.7 | > 1000 | > 1000 | 434 (≈ 263 µg/mL) | – | – | –
